Source: paper PMC5054060, “Probing the nucleotide-binding activity of a redox sensor: two-component regulatory control in chloroplasts” (Photosynthesis Research, 2016)

Biological target: T1, CSK_T (truncated Arabidopsis CSK, amino acids 301 to 611) (Arabidopsis thaliana, UniProt F4HVG8)
T1 sequence (F4HVG8 301-611): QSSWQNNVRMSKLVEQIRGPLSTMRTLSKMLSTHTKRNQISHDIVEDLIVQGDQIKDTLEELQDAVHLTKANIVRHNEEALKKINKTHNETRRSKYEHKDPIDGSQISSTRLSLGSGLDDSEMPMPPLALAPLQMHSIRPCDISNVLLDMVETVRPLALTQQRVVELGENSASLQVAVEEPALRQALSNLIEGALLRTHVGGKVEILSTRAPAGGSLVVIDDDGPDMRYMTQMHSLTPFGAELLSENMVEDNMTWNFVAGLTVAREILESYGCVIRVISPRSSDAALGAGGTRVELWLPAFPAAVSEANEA
Test: displacement of TNP-ATP fluorescence, […] nm
Conditions: 10 mM NaCl, 10 mM Tris-HCl pH 8; 1 µM TNP-ATP; 2 µM protein (figure legend: 1 µM); competitive displacement, no metal added; read-out: Binding affinity / ATP (mm)

In the case of `Nc1ncnc2c1ncn2[C@@H]1O[C@H](COP(=O)(O)OP(=O)(O)OP(=O)(O)O)[C@@H](O)[C@H]1O` [ATP], the Kd is reported as 4.97 mM.
